Assay results published in paper PMC3593989 (Biochimica et biophysica acta, 2013).

Legend:
[1] = molecular target: T1, acyl-CoA synthetase 4 (Acsl4) (Rattus norvegicus, UniProt O35547); assay type: biochemical
[2] = molecular target: T1, acyl-CoA synthetase 4 (Acsl4); assay type: biochemical; remark: listed apart in the source

T1 sequence (O35547 whole entry): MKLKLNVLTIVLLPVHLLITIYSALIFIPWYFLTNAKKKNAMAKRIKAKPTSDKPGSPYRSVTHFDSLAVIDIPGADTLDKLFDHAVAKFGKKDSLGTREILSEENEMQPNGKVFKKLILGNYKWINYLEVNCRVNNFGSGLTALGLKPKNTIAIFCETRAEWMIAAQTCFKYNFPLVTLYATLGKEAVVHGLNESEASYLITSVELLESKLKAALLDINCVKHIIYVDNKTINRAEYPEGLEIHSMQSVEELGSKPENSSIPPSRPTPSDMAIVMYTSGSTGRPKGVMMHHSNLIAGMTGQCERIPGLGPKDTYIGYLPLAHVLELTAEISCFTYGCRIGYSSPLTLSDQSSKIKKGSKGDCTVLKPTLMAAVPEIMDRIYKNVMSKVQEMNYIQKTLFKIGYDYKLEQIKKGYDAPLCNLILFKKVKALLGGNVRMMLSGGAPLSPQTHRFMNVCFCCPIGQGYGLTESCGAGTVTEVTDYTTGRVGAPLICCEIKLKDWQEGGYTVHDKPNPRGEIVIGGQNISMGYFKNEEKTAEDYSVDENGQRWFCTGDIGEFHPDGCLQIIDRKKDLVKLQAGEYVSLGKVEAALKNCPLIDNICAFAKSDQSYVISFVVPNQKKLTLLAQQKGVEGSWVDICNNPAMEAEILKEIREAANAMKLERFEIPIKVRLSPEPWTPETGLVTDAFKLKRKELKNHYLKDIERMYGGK

Row | SMILES | Ki [1] [mM] | Km [2] [µM]
1 | CCCC(C(=O)O)C(C)C (racemic) [PIA, 2-isopropylpentanoic acid] | 11.4 ± 1.28 | 
2 | CCCCC/C=C\C/C=C\C/C=C\C/C=C\CCCC(=O)O [AA, arachidonic acid] |  | 4.12 ± 0.56
